Data set [1] in a line: Cytotoxicity against human HL-7702 cells assessed as cell viability at 10 uM after 24 hrs by MTT assay. It is filed as cell-based. Conditions: l02, 24 h. A general note: Tetrazolium assays rely on reduction of a dye to a coloured formazan, in cell work by metabolically active cells.
The test system of data set [2] is RAW264.7. Description: Anti-inflammatory activity in mouse RAW264.7 cells assessed as inhibition of TNFalpha production at 10 uM preincubated for 30 mins followed by 0.5 ug/ml LPS addition after 24 hrs by ELISA. It is filed as functional.
The subject of data set [3] is RAW264.7. Description: Anti-inflammatory activity in mouse RAW264.7 cells assessed as inhibition of IL-6 production at 10 uM preincubated for 30 mins followed by 0.5 ug/ml LPS addition after 24 hrs by ELISA. In kind it is functional. A general note: ELISA stands for enzyme-linked immunosorbent assay.

The source made the active and inactive calls. The rule behind the calls is not given here. Some results are limits rather than exact numbers.

`COc1cc(/C=C2\CC/C(=C\c3c[nH]c4ncccc34)C2=O)ccc1O`: in data set [1], the Activity entry was “Non-toxic”. The inhibition entry in the data set with RAW264.7 [2] and in the data set with RAW264.7 [3] was “Active” throughout.
For the compound `COc1cc(/C=C2\CCC/C(=C\c3ccccc3Br)C2=O)ccc1O`, in data set [1], the Activity result is given as “Non-toxic”. The inhibition result in the data set with RAW264.7 [2] and in the data set on RAW264.7 [3] was “Active” in each case.
Turning to `COc1cc(/C=C2\CCC/C(=C\c3ccc(Cl)c(Cl)c3)C2=O)ccc1O`, the Activity entry in data set [1] is reported as “Non-toxic”. Further, the inhibition result in the data set on RAW264.7 [2] and in the data set on RAW264.7 [3] was “Active” throughout.
Turning to `COc1ccc(/C=C2\CC/C(=C\c3ccc(O)c(OC)c3)C2=O)c(F)c1`, the Activity result in data set [1] was “Non-toxic”. Besides, the inhibition result with RAW264.7 [2] and with RAW264.7 [3] was “Active” each time.
Turning to `COc1cc(/C=C2\CCC/C(=C\c3ccc(Cl)c([N+](=O)[O-])c3)C2=O)ccc1O`, in data set [1], the Activity result is recorded as “Non-toxic”. The inhibition entry in the data set on RAW264.7 [2] and in the data set with RAW264.7 [3] was “Active” throughout.
Consider `COc1cc(/C=C2\CCC/C(=C\c3ccc(O)cc3)C2=O)ccc1O`, for which the Activity entry in data set [1] is reported as “Non-toxic”. The inhibition entry in the data set on RAW264.7 [2] and with RAW264.7 [3] was “Active” throughout.
`COc1cc(/C=C2\CCC/C(=C\c3ccccc3OC)C2=O)ccc1O`: the Activity entry in data set [1] is “Non-toxic”. The inhibition entry in the data set with RAW264.7 [2] and with RAW264.7 [3] was “Active” each time.
With `COc1cc(/C=C2\CCC/C(=C\c3cccc(OC)c3O)C2=O)ccc1O`, the Activity result in data set [1] is listed as “Non-toxic”. Besides, the inhibition result in the data set with RAW264.7 [2] and in the data set on RAW264.7 [3] was “Active” throughout.
Regarding `COc1cc(/C=C2\CCC/C(=C\c3c(C)cc(C)cc3C)C2=O)ccc1O`, the Activity result in data set [1] is recorded as “Non-toxic”. Further, the inhibition entry in the data set with RAW264.7 [2] and with RAW264.7 [3] was “Active” in each case.
As to `COc1cc(/C=C2\CCC/C(=C\c3cc(F)ccc3F)C2=O)ccc1O`, the Activity entry in data set [1] is recorded as “Non-toxic”. For the same compound, the inhibition result in the data set with RAW264.7 [2] and with RAW264.7 [3] was “Active” throughout.
Consider `COc1cc(/C=C2\CCC/C(=C\c3ccc(O)c(O)c3)C2=O)ccc1O`, for which, in data set [1], the Activity result is “Non-toxic”. The inhibition result with RAW264.7 [2] and in the data set with RAW264.7 [3] was “Active” throughout.
For `COc1cc(/C=C2\CCC/C(=C\c3ccc4ccccc4c3)C2=O)ccc1O`, the Activity entry in data set [1] is “Non-toxic”. Besides, the inhibition result in the data set on RAW264.7 [2] and in the data set on RAW264.7 [3] was “Active” each time.
Consider `COc1ccc(OC)c(/C=C2\CCC/C(=C\c3ccc(O)c(OC)c3)C2=O)c1`, for which the Activity entry in data set [1] was “Non-toxic”. The inhibition result in the data set on RAW264.7 [2] and with RAW264.7 [3] was “Active” each time.
For `COc1ccc(/C=C2\CCC/C(=C\c3ccc(O)c(OC)c3)C2=O)cc1`, the Activity entry in data set [1] was “Non-toxic”. The inhibition entry in the data set on RAW264.7 [2] and in the data set on RAW264.7 [3] was “Active” in each case.
Take `COc1cc(/C=C2\CCC/C(=C\c3ccc(OC)c(OC)c3)C2=O)ccc1O`: in data set [1], the Activity entry is given as “Non-toxic”. The inhibition result in the data set on RAW264.7 [2] and with RAW264.7 [3] was “Active” in each case.
`COc1cc(/C=C2\CC/C(=C\c3cc4c(cc3Br)OCO4)C2=O)ccc1O`: in data set [1], the Activity entry is on record as “Non-toxic”. Also, the inhibition entry with RAW264.7 [2] and in the data set on RAW264.7 [3] was “Active” each time.
With `COc1cc(/C=C2\CCC/C(=C\c3cccc(OC)c3OC)C2=O)ccc1O`, the Activity entry in data set [1] was “Non-toxic”. For the same compound, the inhibition result with RAW264.7 [2] and with RAW264.7 [3] was “Active” in each case.
For the compound `COc1cc(/C=C2\CCC/C(=C\c3c(F)cccc3F)C2=O)ccc1O`, in data set [1], the Activity result is “Non-toxic”. Besides, the inhibition result in the data set with RAW264.7 [2] and in the data set with RAW264.7 [3] was “Active” each time.
As to `CCOc1ccc(Br)cc1/C=C1\CCC/C(=C\c2ccc(O)c(OC)c2)C1=O`, the Activity result in data set [1] was “Non-toxic”. For the same compound, the inhibition entry with RAW264.7 [2] and in the data set with RAW264.7 [3] was “Active” each time.
In the case of `COc1cc(/C=C2\CCC/C(=C\c3ccc(F)c(Br)c3)C2=O)ccc1O`, in data set [1], the Activity result is recorded as “Non-toxic”. The inhibition result with RAW264.7 [2] and with RAW264.7 [3] was “Active” each time.
`COc1cc(/C=C2\CCC/C(=C\c3cc4c(cc3Br)OCO4)C2=O)ccc1O`: the Activity result in data set [1] was “Non-toxic”. Moreover, the inhibition entry in the data set on RAW264.7 [2] and in the data set on RAW264.7 [3] was “Active” throughout.
With `COc1cc(/C=C2\CCC/C(=C\c3cc(OC)c(OC)c(OC)c3)C2=O)ccc1O`, in data set [1], the Activity entry is “Non-toxic”. Besides, the inhibition entry with RAW264.7 [2] and in the data set with RAW264.7 [3] was “Active” in each case.
On to `COc1cc(/C=C2\CCC/C(=C\c3cc(Br)c(O)c(Br)c3)C2=O)ccc1O`, for which, in data set [1], the Activity result is given as “Non-toxic”. Moreover, the inhibition entry with RAW264.7 [2] and in the data set on RAW264.7 [3] was “Active” in each case.
With `COc1cc(/C=C2\CC/C(=C\c3cc4ccccc4[nH]3)C2=O)ccc1O`, in data set [1], the Activity entry is on record as “Non-toxic”. Also, the “inhibition (INH)” value in the data set on RAW264.7 [2] and in the data set on RAW264.7 [3] was greater than 50% in each case.
For the compound `COc1cc(/C=C2\CCC/C(=C\c3ccc(Cl)cc3Cl)C2=O)ccc1O`, the Activity entry in data set [1] is given as “Non-toxic”. The inhibition result in the data set with RAW264.7 [2] and in the data set with RAW264.7 [3] was “Active” in each case.
In the case of `COc1cc(/C=C2\CCC/C(=C\c3cccc(F)c3)C2=O)ccc1O`, the Activity result in data set [1] is recorded as “Non-toxic”. The inhibition entry in the data set on RAW264.7 [2] and in the data set on RAW264.7 [3] was “Active” each time.
On to `COc1cc(/C=C2\CC/C(=C\c3ccc4ccccc4c3)C2=O)ccc1O`, for which the Activity result in data set [1] is on record as “Non-toxic”. Moreover, the inhibition result in the data set with RAW264.7 [2] and with RAW264.7 [3] was “Active” each time.
With `COc1cc(/C=C2\CCC/C(=C\c3ccc(Cl)cc3)C2=O)ccc1O`, the Activity entry in data set [1] was “Non-toxic”. The inhibition result in the data set with RAW264.7 [2] and in the data set with RAW264.7 [3] was “Active” in each case.
Consider `COc1ccc(/C=C2\CCC/C(=C\c3ccc(O)c(OC)c3)C2=O)c(OC)c1`, for which, in data set [1], the Activity result is “Non-toxic”. The inhibition result with RAW264.7 [2] and with RAW264.7 [3] was “Active” throughout.
In the case of `COc1cc(/C=C2\CCC/C(=C\c3ccccc3C(F)(F)F)C2=O)ccc1O`, the Activity entry in data set [1] is given as “Non-toxic”. The inhibition result with RAW264.7 [2] and with RAW264.7 [3] was “Active” throughout.
In the case of `COc1cc(/C=C2\CCC/C(=C\c3cccc(Cl)c3Cl)C2=O)ccc1O`, the Activity result in data set [1] is listed as “Non-toxic”. The inhibition result with RAW264.7 [2] and in the data set on RAW264.7 [3] was “Active” in each case.
On to `COc1cc(/C=C2\CCC/C(=C\c3ccccc3F)C2=O)ccc1O`, for which the Activity entry in data set [1] is “Non-toxic”. Also, the inhibition result in the data set on RAW264.7 [2] and in the data set on RAW264.7 [3] was “Active” throughout.
With `COc1cc(/C=C2\CCC/C(=C\c3ccc(F)c(F)c3)C2=O)ccc1O`, the Activity entry in data set [1] was “Non-toxic”. In addition, the inhibition result with RAW264.7 [2] and in the data set with RAW264.7 [3] was “Active” in each case.
